Results: PMC8011931, “Identification, Structure–Activity Relationship, and Biological Characterization of 2,3,4,5-Tetrahydro-1H-pyrido[4,3-b]indoles as a Novel Class of CFTR Potentiators” (Journal of Medicinal Chemistry, 2020)
Like-named read-outs stand apart in the source and are kept apart here.

Test: Lung tissue distribution after a single oral dose to rats
Type: in vivo
Settings: Sprague-Dawley, rat, p.o., 10 mg/kg
Experimental: Taking into account both the encouraging results in rescuing the gating defect in mutant CFTR in both primary and secondary biological assays, and the promising in vivo PK profile, we quantified the amount of compound 39 in rat lung tissue, the main target organ for CF treatment. The lung tissue distribution of potentiator 39 was investigated following administration of a single oral dose of 10 mg/kg to Sprague–Dawley rats. Supported by the data obtained in the pharmacokinetic study after oral administration, two time points (2 and 4 h) were selected for collecting plasma and lung tissue samples. The mean concentration vs. time profiles of compound 39 in plasma and lung tissue are reported in Figure S2 (see the Supporting Information).
Three animals per dose and timing were treated. Compound 39 was dissolved in PEG400/Tween80/saline solution at 10/10/80% in volume and administered orally at a dose of 10 mg/kg. After 120 and 240 min, rats were sacrificed and lungs were immediately dissected, frozen on dry ice, and stored at −80 °C until analysis. Lung samples were homogenized in RIPA buffer (150 mM NaCl, 1.0% Triton X-100, 0.5% sodium deoxycholate, 0.1% sodium dodecyl sulfate, 50 mM Tris, and pH 8.0) and then split into two aliquots kept at −80 °C until analysis. An aliquot was used for compound lung-level evaluations. The second aliquot was kept for protein content evaluation using the bicinchoninic acid assay (Thermo Scientific, Rockford, IL, USA).
Plasma samples were centrifuged at 21,100g for 15 min at 4 °C, while homogenized lung samples were vigorously whirled. An aliquot of each sample was extracted (1:3) with cold CH3CN containing 200 nM of an appropriate internal standard being a close analogue of the parent compound. A calibration curve was prepared in both blank mouse plasma and naïve lung homogenate over a 1 nM to 10 μM range. Three quality controls were prepared by spiking the parent compound in both blank mouse plasma and naïve lung homogenate to 20, 200, and 2000 nM as final concentrations. The calibrators and quality controls were extracted (1:3) with the same extraction solution as the plasma and lung samples. The plasma and lung samples, the calibrators, and quality controls were centrifuged at 3270g for 15 min at 4 °C. The supernatants were further diluted (1:1) with H2O and analyzed by LC/MS–MS on a Waters ACQUITY UPLC/MS TQD system consisting of a TQD mass spectrometer equipped with an electrospray ionization interface and a photodiode array eλ detector. Electrospray ionization was applied in the positive mode. […] All samples (plasma and lung samples, calibrators, and quality controls) were quantified by MRM peak area response factor in order to determine the levels of the parent compound in plasma and lung. […]

[1] = lung, read-out: concentration in the lungs

Question: With `Cc1ccc(F)c2[nH]c3c(c12)CN(C(=O)c1cc(C(F)(F)F)[nH]n1)[C@H](C)C3` [Compound 39, (R)-(6-Fluoro-3,9-dimethyl-1,3,4,5-tetrahydro-2H-pyrido[4,3-b]indol-2-yl)-(5-(trifluoromethyl)-1H-pyrazol-3-yl)methanone] as the compound, how does the concentration at 2 h [1] read?
Answer: 4500 ng/g

Question: And the concentration at 4 h [1]?
Answer: 2200 ng/g

Question: And the concentration at 2 h (plasma, read-out: plasma level)?
Answer: 1030 ng/mL

Question: And the concentration at 4 h (plasma, read-out: plasma level)?
Answer: 675 ng/mL
